In ChEMBL document CHEMBL2390940, “Synthesis and receptor binding studies of novel 4,4-disubstituted arylalkyl/arylalkylsulfonyl piperazine and piperidine-based derivatives as a new class of σ1 ligands” (Eur J Med Chem, 2013):

Legend:
[1] = Displacement of [3H]DTG from sigma2 receptor in Sprague-Dawley rat liver membrane after 150 mins by liquid scintillation counting analysis; assay type: cell membranes
[2] = biological target: Sigma non-opioid intracellular receptor 1 (Cavia porcellus, UniProt Q60492)
Sigma non-opioid intracellular receptor 1, sequence (Q60492 whole entry): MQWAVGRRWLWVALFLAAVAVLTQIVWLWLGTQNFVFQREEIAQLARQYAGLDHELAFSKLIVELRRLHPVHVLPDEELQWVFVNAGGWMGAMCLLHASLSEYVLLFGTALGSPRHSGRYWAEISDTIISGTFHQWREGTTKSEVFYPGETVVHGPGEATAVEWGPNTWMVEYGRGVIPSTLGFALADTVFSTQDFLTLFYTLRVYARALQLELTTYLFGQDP

[3] = Binding affinity to sigma receptor (unknown origin); set-up: species or system Homo sapiens

| Compound | Ki [1] | Ki [2] | Ki [3] |
| --- | --- | --- | --- |
| O=S(=O)(Cc1cccc(Br)c1)N1CCN(Cc2ccccc2)CC1 | 148 nM | 29.9 nM |  |
| O=S(=O)(/C=C/c1ccc(Br)cc1)N1CCN(Cc2ccccc2)CC1 | 485 nM | 1080 nM |  |
| O=S(=O)(Cc1cccc(Cl)c1)N1CCC(Cc2ccccc2)CC1 | 199 nM | 40 nM |  |
| O=S(=O)(Cc1cccc(I)c1)N1CCC(Cc2ccccc2)CC1 | 91.8 nM | 0.96 nM |  |
| O=S(=O)(c1ccccc1)N1CCC(Cc2ccccc2)CC1 | 56.7 nM | 24.3 nM |  |
| O=S(=O)(Cc1ccccc1)N1CCN(Cc2ccc(Br)cc2)CC1 | 288 nM | 13.4 nM |  |
| Cc1ccccc1NC(=N)Nc1ccccc1C [DITOLYLGUANIDINE] | 58.4 nM |  |  |
| O=C(CCCN1CCC(O)(c2ccc(Cl)cc2)CC1)c1ccc(F)cc1 [HALOPERIDOL] | 43.5 nM |  |  |
| O=S(=O)(Cc1ccccc1)N1CCN(Cc2ccccc2)CC1 | 48.4 nM | 11.2 nM |  |
| O=S(=O)(c1ccc(Cl)cc1)N1CCC(Cc2ccccc2)CC1 | 778 nM | 551 nM |  |
| O=S(=O)(Cc1ccccc1)N1CCN(Cc2cccc(Cl)c2)CC1 | 174 nM | 51.8 nM |  |
| O=S(=O)(Cc1ccccc1)N1CCN(Cc2cccc(I)c2)CC1 | 117 nM | 1.8 nM |  |
| CC(C)=CCN1CC[C@]2(C)c3cc(O)ccc3C[C@H]1[C@H]2C [(+)-PENTAZOCINE] | 1870 nM |  |  |
| O=S(=O)(Cc1cccc(Br)c1)N1CCC(Cc2ccccc2)CC1 | 25.9 nM | 1.6 nM |  |
| O=S(=O)(Cc1ccccc1)N1CCC(Cc2ccccc2)CC1 | 38.9 nM | 9.9 nM |  |
| O=S(=O)(CCc1ccccc1)N1CCC(Cc2ccccc2)CC1 | 187 nM |  |  |
| COc1ccc(CN2CCN(S(=O)(=O)Cc3ccccc3)CC2)cc1 | 2130 nM | 192 nM |  |

| Compound | Ki [1] | Ki [2] | Ki [3] |
| --- | --- | --- | --- |
| Cc1cccc(CN2CCN(S(=O)(=O)Cc3ccccc3)CC2)c1 | 151 nM | 15 nM |  |
| O=S(=O)(CCc1ccccc1)N1CCN(Cc2ccccc2)CC1 | 191 nM | 78.4 nM |  |
| OC[C@@H]1CN(CCc2ccccc2)CCN1Cc1ccccc1 | 177 nM | 38 nM |  |
| Clc1ccc(/C=C/CN2CCN(Cc3ccccc3)CC2)cc1 |  |  | 0.3 nM |
| O=S(=O)(Cc1cccc(I)c1)N1CCN(Cc2ccccc2)CC1 | 88.8 nM | 2.7 nM |  |
| O=S(=O)(/C=C/c1ccccc1)N1CCC(Cc2ccccc2)CC1 | 1960 nM | 138 nM |  |
| O=S(=O)(c1ccccc1)N1CCN(Cc2ccccc2)CC1 | 87.1 nM | 28.4 nM |  |
| O=S(=O)(Cc1cccc(Cl)c1)N1CCN(Cc2ccccc2)CC1 | 134 nM | 68.1 nM |  |
| c1ccc(CCCN2CCC(Cc3ccccc3)CC2)cc1 | 3.3 nM | 0.4 nM |  |
| Cc1cccc(CS(=O)(=O)N2CCN(Cc3ccccc3)CC2)c1 | 89.4 nM | 35.9 nM |  |
| O=S(=O)(/C=C/c1ccc(Br)cc1)N1CCC(Cc2ccccc2)CC1 | 248 nM | 843 nM |  |
| O=S(=O)(Cc1ccccc1)N1CCN(Cc2cccc(F)c2)CC1 | 181 nM | 68.7 nM |  |
| c1ccc(CN2CCN(Cc3ccccc3)CC2)cc1 | 1270 nM |  |  |
| Cc1cccc(CS(=O)(=O)N2CCC(Cc3ccccc3)CC2)c1 | 48.9 nM | 4.7 nM |  |
| c1ccc(CCCN2CCN(Cc3ccccc3)CC2)cc1 |  | 20 nM |  |
| O=S(=O)(c1ccc(Cl)cc1)N1CCN(Cc2ccccc2)CC1 | 1550 nM | 969 nM |  |
| O=S(=O)(/C=C/c1ccccc1)N1CCN(Cc2ccccc2)CC1 | 8140 nM | 201 nM |  |
